In patent publication US20150315188A1, “COMPOUNDS AND METHODS FOR TREATMENT OF HYPERTENSION” (MEDIVATION TECHNOLOGIES, INC., priority 2012, published 2015):

How the values were obtained:
[1] = target: T1, Human adrenergic α2B receptor (Homo sapiens, UniProt P18089); test: β-Arrestin GPCR functional assay, adrenergic α2B (Protocol B); format: cell-based; details: β-arrestin, antagonist vs nor-epinephrine EC80; read-out: IC50 Adrenergic α2B
T1 sequence (P18089 1-450): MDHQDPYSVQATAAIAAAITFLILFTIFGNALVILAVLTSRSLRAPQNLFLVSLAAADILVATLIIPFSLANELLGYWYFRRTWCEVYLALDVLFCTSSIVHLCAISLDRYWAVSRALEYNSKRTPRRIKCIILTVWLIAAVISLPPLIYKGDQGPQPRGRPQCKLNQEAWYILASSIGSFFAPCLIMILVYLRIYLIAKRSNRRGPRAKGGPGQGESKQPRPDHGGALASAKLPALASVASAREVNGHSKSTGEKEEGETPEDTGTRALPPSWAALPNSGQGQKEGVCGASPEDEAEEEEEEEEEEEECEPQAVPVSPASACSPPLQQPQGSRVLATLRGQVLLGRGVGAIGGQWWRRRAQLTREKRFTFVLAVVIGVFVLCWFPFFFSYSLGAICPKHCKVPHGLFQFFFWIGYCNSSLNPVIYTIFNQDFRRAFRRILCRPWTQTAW
Protocol: To evaluate the activity of compounds in β-Arrestin GPCR functional assays, recombinant CHO cell line (DiscoveRX), over expressed with human adrenergic α2B receptor were used. The experiment was done with kit of DiscoveRX as per recommended protocol of the supplier. Cells were harvested from culture flask using cell dissociation solution (CDS) and plated at a density of 12,000 cells/well in CP reagent (supplied with the kit) in a half area 96-well white polystyrene plate. After 24 h incubation at 37° C., compounds at various concentrations in 1% (final) DMSO were charged to the cells for 30 min at 37° C. Active nor-epinephrine (-NE) at its EC80 concentrations (50 nM) were then added to the cells and incubated for another 90 min at 37° C. Detection mix was prepared by mixing of Path Hunter cell assay buffer, Emerald II solution and Galactone star solution in a ratio of 19:5:1 and incubated with the cells for 60 min at RT in the dark. The reading was taken in Envision at luminescence mode. Biochemical assay results are presented as the percent Inhibition in Table B2a, or IC50 values in Table B2b.

[2] = target: T2, Human adrenergic α2A receptor (Homo sapiens, UniProt P08913); test: Radioligand binding, adrenergic α2A (Protocol Group B); set-up: purchased Milipore (Millipore); details: Protocol Group B; for Percentage inhibition of ligand binding, Adrenergic α2A (0.1 μM) / inhibition at 0.1 µM: 0.1 μM compound; for inhibition at 0.3 µM / Percentage inhibition of ligand binding, Adrenergic α2A (0.3 μM): 0.3 μM compound; for inhibition at 0.3 µM: read-out: Percentage inhibition of ligand binding, Adrenergic α2A (0.3 μM); for inhibition at 0.1 µM: read-out: Percentage inhibition of ligand binding, Adrenergic α2A (0.1 μM)
T2 sequence (P08913 1-465): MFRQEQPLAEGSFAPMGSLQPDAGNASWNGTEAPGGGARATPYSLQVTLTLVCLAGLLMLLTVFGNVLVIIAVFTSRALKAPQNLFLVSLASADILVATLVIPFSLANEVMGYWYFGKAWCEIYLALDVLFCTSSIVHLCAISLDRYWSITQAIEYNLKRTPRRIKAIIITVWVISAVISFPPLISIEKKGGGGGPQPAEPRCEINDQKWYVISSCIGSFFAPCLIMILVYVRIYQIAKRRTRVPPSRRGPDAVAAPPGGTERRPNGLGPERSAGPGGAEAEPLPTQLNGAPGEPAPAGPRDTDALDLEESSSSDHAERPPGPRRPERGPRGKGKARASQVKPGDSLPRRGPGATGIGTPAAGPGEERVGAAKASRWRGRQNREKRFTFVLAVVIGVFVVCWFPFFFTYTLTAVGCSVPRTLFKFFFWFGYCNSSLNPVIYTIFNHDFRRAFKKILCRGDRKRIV
Summary of the method: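 Compounds (1% DMSO vehicle, various concentrations) competed against 2 nM [^3H]MK-912 on recombinant receptor membranes for 60 min at 25° C, Tris-HCl pH 7.4 buffer with Mg2+, Ca2+, BSA. Bound radioligand filtered and counted; 10 μM rauwolscine set nonspecific binding. Values: percent inhibition of specific binding or estimated Ki.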

[3] = target: T1, Human adrenergic α2B receptor; test: Radioligand binding, adrenergic α2B (Protocol Group B); set-up: purchased Milipore (Millipore); details: Protocol Group B; for inhibition at 0.01 µM / Percentage inhibition of ligand binding, Adrenergic α2B (10 nM): 10 nM compound; for inhibition at 0.01 µM: read-out: Percentage inhibition of ligand binding, Adrenergic α2B (10 nM); for inhibition at 0.03 µM / Percentage inhibition of ligand binding, Adrenergic α2B (30 nM): 30 nM compound; for inhibition at 0.03 µM: read-out: Percentage inhibition of ligand binding, Adrenergic α2B (30 nM); for inhibition at 0.1 µM: 0.1 μM compound, read-out: Percentage inhibition of ligand binding, Adrenergic α2B (0.1 μM); for Ki: estimated Ki, read-out: Ki α2B; for Percentage inhibition of ligand binding, Adrenergic α2B (10 nM): 0.01 µM; for Percentage inhibition of ligand binding, Adrenergic α2B (30 nM): 0.03 µM
Summary of the method: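 Compounds at various concentrations in 1% DMSO were tested on recombinant membranes in Tris-HCl pH 7.4 buffer containing MgCl2, CaCl2 and 0.2% BSA.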

[4] = target: T3, Human adrenergic α1B receptor (Homo sapiens, UniProt P35368); test: Radioligand binding, adrenergic α1B (Protocol Group B); set-up: purchased Milipore (Millipore); details: Protocol Group B; for Percentage inhibition of ligand binding, Adrenergic α1B (0.1 μM) / inhibition at 0.1 µM: 0.1 μM compound; for inhibition at 0.3 µM / Percentage inhibition of ligand binding, Adrenergic α1B (0.3 μM): 0.3 μM compound; for inhibition at 0.3 µM: read-out: Percentage inhibition of ligand binding, Adrenergic α1B (0.3 μM); for inhibition at 0.1 µM: read-out: Percentage inhibition of ligand binding, Adrenergic α1B (0.1 μM)
T3 sequence (P35368 1-520): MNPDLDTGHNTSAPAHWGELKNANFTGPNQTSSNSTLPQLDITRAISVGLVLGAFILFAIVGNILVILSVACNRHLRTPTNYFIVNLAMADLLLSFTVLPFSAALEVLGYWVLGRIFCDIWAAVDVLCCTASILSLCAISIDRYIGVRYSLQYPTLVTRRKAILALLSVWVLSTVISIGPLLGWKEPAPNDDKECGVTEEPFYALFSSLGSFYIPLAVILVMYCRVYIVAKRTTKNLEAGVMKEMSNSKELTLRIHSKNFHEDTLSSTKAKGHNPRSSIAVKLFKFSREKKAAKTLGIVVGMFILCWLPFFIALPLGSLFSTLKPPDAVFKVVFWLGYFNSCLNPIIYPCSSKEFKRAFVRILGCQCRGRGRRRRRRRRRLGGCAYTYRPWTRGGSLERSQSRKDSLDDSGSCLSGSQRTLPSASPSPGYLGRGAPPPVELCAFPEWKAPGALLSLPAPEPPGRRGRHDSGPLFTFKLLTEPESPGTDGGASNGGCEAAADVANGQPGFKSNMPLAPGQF
Summary of the method: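 Values are percent inhibition of specific [3H]prazosin (0.3 nM) binding or estimated Ki, from filtration counting. Human α1B recombinant membranes, Tris-HCl pH 7.4 buffer with MgCl2 and EDTA, 60 min at 25 °C, 1% DMSO vehicle; 10 μM prazosin defined nonspecific binding.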

Structure (SMILES)	IC50 [1] [nM]	Percentage inhibition of ligand binding, Adrenergic α2A (0.1 μM) [2] [%]	inhibition at 0.3 µM [2] [%]	Ki ([2]; estimated Ki) [nM]	inhibition at 0.01 µM [3] [%]	inhibition at 0.03 µM [3] [%]	inhibition at 0.1 µM [3] [%]	Ki [3] [nM]	Percentage inhibition of ligand binding, Adrenergic α1B (0.1 μM) [4] [%]	inhibition at 0.3 µM [4] [%]	Ki ([4]; estimated Ki) [nM]	inhibition at 0.1 µM [2] [%]	inhibition at 0.1 µM [4] [%]	Percentage inhibition of ligand binding, Adrenergic α2A (0.3 μM) [2] [%]	Percentage inhibition of ligand binding, Adrenergic α2B (10 nM) [3] [%]	Percentage inhibition of ligand binding, Adrenergic α2B (30 nM) [3] [%]	Percentage inhibition of ligand binding, Adrenergic α1B (0.3 μM) [4] [%]
Cc1ccc2c(c1)c1c(n2CC(C)(O)c2cccnc2)CC2CCCN2C1 (single isomer, unassigned) [38b]	237	16	42	291	38	72	90	7.16	15	33	179	–	–	–	–	–	–
Cc1cc(F)c2c(c1)c1c(n2CC(C)(O)c2cccnc2)CC2CCCN2C1 (single isomer, unassigned) [61c]	313	–	41	–	51	77	92	5.4	–	15	–	2	4	–	–	–	–
CC(O)(Cn1c2c(c3cc(Cl)cc(F)c31)CN1CCCC1C2)c1cccnc1 (single isomer, unassigned) [63c]	692	–	36	–	42	71	–	12.4	–	14	–	8	8	–	–	–	–
Cc1cc(F)cc2c3c(n(CC(C)(O)c4cccnc4)c12)CCN1CCCC31 (single isomer, unassigned) [75d]	381	25	–	–	–	–	–	8.65	15	–	–	–	–	41	55	79	33

Further lines, results first:

IC50 [1] [nM]	Percentage inhibition of ligand binding, Adrenergic α2A (0.1 μM) [2] [%]	inhibition at 0.3 µM [2] [%]	Ki ([2]; estimated Ki) [nM]	inhibition at 0.01 µM [3] [%]	inhibition at 0.03 µM [3] [%]	inhibition at 0.1 µM [3] [%]	Ki [3] [nM]	Percentage inhibition of ligand binding, Adrenergic α1B (0.1 μM) [4] [%]	inhibition at 0.3 µM [4] [%]	Ki ([4]; estimated Ki) [nM]	inhibition at 0.1 µM [2] [%]	inhibition at 0.1 µM [4] [%]	Percentage inhibition of ligand binding, Adrenergic α2A (0.3 μM) [2] [%]	Percentage inhibition of ligand binding, Adrenergic α2B (10 nM) [3] [%]	Percentage inhibition of ligand binding, Adrenergic α2B (30 nM) [3] [%]	Percentage inhibition of ligand binding, Adrenergic α1B (0.3 μM) [4] [%]	Structure (SMILES)
261	–	30	–	51	74	–	4.55	–	11	–	24	6	–	–	–	–	Cc1cc(F)cc2c3c(n(CC(C)(O)c4cccnc4)c12)CC1CCCN1C3 (single isomer, unassigned) [76d]
832	–	-4	–	9	42	–	32.6	–	4	–	-12	-9	–	–	–	–	CC(O)(Cn1c2c(c3cc(C(F)(F)F)ccc31)CN1CCCC1C2)c1cccnc1 (single isomer, unassigned) [85a]
699	–	9	–	24	53	–	13	–	15	–	-10	-5	–	–	–	–	CC(O)(Cn1c2c(c3cc(Cl)cc(F)c31)CN1CCCC1C2)c1ccncc1 (single isomer, unassigned) [86c]
303	19	–	–	–	–	–	20.6	13	–	–	–	–	33	30	63	27	Cc1ccc2c(c1F)c1c(n2CC(C)(O)c2cccnc2)CCN2CCCC12 (single isomer, unassigned) [87a]
284	31	–	–	–	–	–	23.8	16	–	–	–	–	53	37	66	35	Cc1ccc2c(c1F)c1c(n2CC(C)(O)c2cccnc2)CCN2CCCC12 (single isomer, unassigned) [87b]
